Consider three compounds from patent US11826372B2, “Combinations including ABX196 for the treatment of cancer” (ABIVAX, priority 2016, dated 2023).

Structures are written as SMILES. Where two headings read alike, the source gives them in different places. Bounds are passed on as bounds.

In experiment [1] the test system is Melanoma B16F10 tumor. The note with it: for T/C (antitumor activity index): B16F10 in C57BL/6 mice, ABX196 100 ng i.v. or 10 ng i.t. Day 10, anti-PD-1 mAb 100 μg i.p. Days 6, 9, 12, 15 and 18.
Experimental: The study was performed on a syngeneic in vivo melanoma B16F10 tumor-bearing mouse model. B16F10 tumor cells were subcutaneously inoculated in immuno-competent C57BL/6 mice.
Melanoma B16F10 tumor cells were subcutaneously inoculated at day 0 by injecting cells in the flank of 8-10 weeks-old female C57BL/6 mice, and animals were then randomly assigned into control (vehicle PBS-treated) and treatments groups.
For the anti-PD-1 antibodies treatment, mice were intraperitoneally (IP) injected with anti-PD-1 antibodies at Day 6, 9, 12, 15 and 21. Furthermore, ABX196 was administered at 1 dose, intravenously or intratumorally, with one administration at Day 10 when mean of tumor size reached 100 mm^3.
The animal pharmacological groups for anti-tumor efficacy assessment were organized as such: • Control vehicle-treated group (PBS according to anti-PD-1 treatment schedule) • Anti-PD-1-treated group (at 1 dose, intraperitoneal administration) • ABX196-treated group (at 1 dose, Intravenous (iv) administration at Day10) • Combination-treated group (ABX196 at 1 dose, Intravenous (iv) administration at Day10 in combination with anti-PD-1 antibodies at 1 dose, intraperitoneal (ip) administration) • ABX196-treated group (at 1 dose, Intratumoral (it) administration at Day10) • Combination-treated group (ABX196 at 1 dose, Intratumoral (it) administration at Day10 in combination with anti-PD-1 antibodies at 1 dose, intraperitoneal (ip) administration)
Tumor volume and body weight of the animals were measured and recorded three times per week. A tumor volume exceeding 2000 mm3 or a weight loss greater than 15% relative to the initial weight of the animal were considered as endpoints.
B16F10 cells were implanted subcutaneously in the right flank of C57BL/6 immunocompetent mice (8 week-old female). The implantation procedure was as follows (all steps were carried out under sterile laminar flow conditions):
Mice (body weight around 20 g) were anesthetized with an intraperitoneal injection of 90 μL of anesthetic (ie 1.5 mg/Kg Ketamine and Xylazine 150 μg/Kg). The cells to be implanted were resuspended in sterile PBS and the volume needed to implant was loaded in 1 ml syringe with a needle (1,000,000 cells/100 μL).
Anti-PD-1 monoclonal antibodies (a-PD-1) treatment schedule was applied, at 100 μg by i.p. injection. Treatment was repeated 4 times, at Days 6, 9, 12, 15 and 18.
ABX196 was administered at Day 10 either: • by intravenous (i.v) injection at the dose of 100 ng per mouse; or • by intratumoral (i.t) injection at the dose of 10 ng per mouse
Starting from day 6 after B16F10 cell inoculation, all experimental animal groups were monitored 3 times per week over a 4 weeks period for the following parameters: • Tumor size: measured by physical examination, 3 times per week, • Body weight: monitored 3 times per week, and • Survival: represented in a Kaplan-Meier plot.
Experiment [2] has as its system MBT-2 Bladder Cancer.
Experimental: ABX196 was administered at the dose of 100 ng per mouse. The anti-PD-1 antibody was administered at the dose of 10 mg/kg.
MBT-2 tumors were induced by subcutaneous injection of 1×10^6 cells in 200 μL of RPMI 1640 into the right flank of sixty-eight (68) female animals.
The treatment started when the tumors reached a mean volume of 80-120 mm^3. […] A statistical test (analysis of variance, ANOVA) was performed to test for homogeneity between groups. The treatment schedule was as follows: • Animals from group 1 received an IV injection of ABX196 vehicle and an IP injection of anti-PD-1 antibody vehicle, • Animals from group 2 received an IV injection of 100 ng of ABX196, • Animals from group 3 received twice weekly administrations of anti-PD-1 antibody, • Animals from group 4 received an IV injection of 100 ng of ABX196 and twice weekly administrations of anti-PD-1 antibody.
The viability and behavior were recorded every day. Body weights were measured twice a week. The length and width of the tumor were measured twice a week with calipers and the volume of the tumor was estimated by the formula:
All statistical analyses were performed using Vivo Manager® software (Biosystemes, Couternon, France). Statistical analysis of mean body weights, MBWC, mean tumor volumes at randomization, mean tumor volumes V, mean times to reach V and mean tumor doubling times were performed using ANOVA. Pairwise tests were performed using the Bonferroni/Dunn correction in case of significant ANOVA results. The log-Rank (Kaplan-Meier) test was used to compare the survival curves. A p value <0.05 was considered as significant.
The subject of experiment [3] is CT-26 Colorectal Cancer. In words: Antitumor activity of ABX196 alone or with anti-PD-1 antibody in mice bearing subcutaneous CT-26 colorectal cancer (Example 6). The format is in vivo, mouse. The note with it: CT-26 in BALB/c mice; ABX196 100 ng IV Q1Dx1; anti-PD-1 Ab 10 mg/kg IP TWx2. The method, then: Body weights were measured twice a week.
In experiment [4] the test system is Hepa 1-6 Hepatocarcinoma. The note with it: for Fraction alive / Fraction without detectable metastasis: Day 61, orthotopic Hepa 1-6 in C57BL/6 mice; for Tumor invasion of the liver at day 20, Dunn's multiple comparisons test vs Vehicle: Mean rank diff.: ABX196 100 ng IV D5, sorafenib 100 mg/kg PO Q1Dx21, doxorubicin 12 mg/kg IV D5, anti-PD-1 10 mg/kg IP D7/D10/D14/D17.
Experimental: Tumor invasion was evaluated semi-quantitively by a visual evaluation of the percentage of tumor in the entire liver.
One million (1×106) of tumor cells in 50 μL of RPMI 1640 medium were transplanted via intra-splenic injection into 100 C57BL/6 mice. Briefly, a small left subcostal flank incision was made. Spleen was exteriorized. The spleen was exposed on the sterile gauze pad, and injected under visual control with the cell suspension with a 27-gauge needle. After the cell inoculation, the spleen was excised. The day of tumor cell injection was considered as DO.
The treatment started at D5. Ninety-nine animals (99) out of one hundred (100) were randomized according to their individual body weight into 3 groups of 13 animals and 5 groups of 12 animals using Vivo Manager® software (Biosystemes, Couternon, France). A statistical test (analysis of variance, ANOVA) was performed to test for homogeneity between groups. The treatment schedule was as follows: • Animals from group 1 received one IV injection of ABX196 vehicle at day 5, • Animals from group 2 received one daily PO administration of sorafenib at 100 mg/kg/adm for 21 consecutive days, starting at day 5, • Animals from group 3 received one IV injection of 100 ng of ABX196 on day 5 and one daily PO administration of sorafenib at 100 mg/kg/adm for 21 consecutive days, starting at day 5, • Animals from group 4 received one IV injection of Doxorubicin at 12 mg/kg on day 5, • Animals from group 5 received one IV injection of 100 ng of ABX196 and one IV injection of Doxorubicin at 12 mg/kg on day 5, • Animals from group 6 received 4 IP administrations of anti-PD-1 antibody on day 7, 10, 14 and 17 (Twice weekly×2), • Animals from group 7 received one IV injection of 100 ng of ABX196 on day 5 and 4 IP administrations of anti-PD-1 antibody on day 7, 10, 14 and 17 (Twice weekly×2).
At D19 and D20, 5 mice per group from group 1 to 8 were imaged (40 animals per day). A semi-quantitative analysis was then performed.
At the time of final mice termination (around D60), liver was weighted. The number of metastases was evaluated macroscopically and the localization, the appearance (shape, colour, consistency) and the size of each of them was recorded. Macroscopic photography of the liver was taken.
The treatment efficacy was assessed in terms of the effects of the test substance on the tumor volumes of treated animals relative to control animals. The following evaluation criteria of antitumor efficacy were determined: • Individual and/or mean (or median) measurement at D19-20 of tumor invasion within the liver using MRI imaging, • Measurement of circulating a-Fetoprotein in the plasma at D22, • Liver weight measured at termination, • Survival curves, • Median survival times.
Statistical analysis of tumor invasion between vehicle and each group at day 20.
Pair wise comparison with Dunn's test

Experiment [5] concerns B16-F10 melanoma.
Experimental: Tumor was induced by subcutaneous injection of 1×10^6 of B16-F10 cells in 200 μL of PBS buffer into the right flank of 95 C57BL/6 female animals. The day of tumor cell injection in the right flank was considered as D0.
On D3, 90 out of ninety-five 95 were then randomized according to their body weight into 6 groups each of 15 animals (groups 1-6).
The viability and behavior were recorded every day. Body weights were measured twice a week until injection of tumor cells then thrice a week. The length and width of the tumor were measured thrice a week with calipers and the volume of the tumor was estimated by the formula:
The treatment efficacy was assessed in terms of the effects of the vaccine composition on the tumor volumes of treated animals relative to control animals. The following evaluation criteria of antitumor efficacy was determined using Vivo Manager® software (Biosystemes, Couternon, France): • Individual, mean and median tumor volumes were provided, • The number of tumor-free mice was provided.
Mice survival was also monitored and used as an efficacy parameter. Survival curves were drawn.
Percent treated/control (T/C (%) index) is calculated by dividing the median treated tumor volume by the median control tumor volume on day 14 and multiplying by 100. A T/C % equal or less than 42% is considered significant antitumor activity by the drug evaluation branch of the division of cancer treatment (NCI).
Tumor growth inhibition is also reflective to the antitumor effectiveness and is calculated following the formula:
Mean tumor volumes at defined times were analyzed with the GrapadPrism Software (Version 6.07) using the Kruskall-Wallis test for all the treatments. A significant difference between all treatments (P<0.05) was followed by pairwise comparisons using the Dunn's multiple comparison test. Survival was analyzed using the Log-rank (Mantel-Cox) test with GrapadPrism Software (Version 6.07). A significant difference between all treatments (P<0.05) was followed by pairwise comparisons using the Log-rank (Mantel-Cox) test.
Setting [6] is: Unpaired t test two tailed, with Welch's correction, listed as ABX196 i.t.
[7] abbreviates: Unpaired t test two tailed, with Welch's correction, listed as ABX196 i.v.
Where [8] appears, read: MBT-2 in C3H/HeJ mice, ABX196 100 ng IV Q1Dx1, anti-PD-1 Ab 10 mg/kg IP TWx2.

Regarding `CCCCCCCCCCCCCCCCCCCCCCCC(=O)N[C@@H](CO[C@H]1O[C@H](CNC(C)=O)[C@H](O)[C@H](O)[C@H]1O)[C@H](O)[C@H](O)CCCCCCCCCCCCCC` [ABX196], the “Effect on tumor volume (in words)” value in experiment [1] (B16F10 bearing mice, FIGS. 5 and 6) is “transient effect”. Also, the “T/C (antitumor activity index)” value in experiment [1] (listed as ABX196 it) turned out to be 53; in experiment [1] (listed as ABX196 iv), 51; in experiment [2] (setting [8]) it was 57; in experiment [3], 51. Further, in experiment [1] (Unpaired t test two tailed, with Welch's correction, vs ABX196 i.v), the “Mean Tumor Volume at Day 17 (p value) vs ABX196 i.v” value was determined as 0.0554. For the same compound, the “Mean Tumor Volume at Day 17 (p value) vs Vehicle” value in experiment [1] (setting [6]) is listed as 0.8942; in experiment [1] (setting [7]), 0.2838. Further, the “Mean Tumor Volume at Day 17 (p value) vs αPD-1 + ABX196 i.v” value in experiment [1] (Unpaired t test two tailed, with Welch's correction, vs αPD-1 + ABX196 i.v) is below 0.0001. Also, the “Mean Tumor Volume at Day 17 (p value) vs αPD-1” value is given as 0.2031 in experiment [1] (setting [6]) and 0.7081 in experiment [1] (setting [7]). In addition, the “Mean Tumor Volume at Day 17 (Significativity) vs αPD-1 + ABX196 i.v” value in experiment [1] (vs αPD-1 + ABX196 i.v) was “**** (****p < 0.0001)”. In addition, in experiment [2] (MBT-2, Log-Rank (Mantel-cox) test, vs ABX196 + Anti-PD-1), the “Statistical analysis of mice survival, pairwise p vs ABX196 + Anti-PD-1” value is given as “***0.0002”. Further, the “Statistical analysis of mice survival, pairwise p vs Vehicle” value in experiment [2] (MBT-2, Log-Rank (Mantel-cox) test, vs Vehicle) was “*0.02”. The “Median Survival” value in experiment [2] (MBT-2 bearing mice, ABX196 100 ng IV, anti-PD-1 Ab 10 mg/kg IP TWx2) stood at 27 days. For the same compound, the “TGI (antitumor activity index)” value turned out to be 43 in experiment [2] (setting [8]) and 72 in experiment [3].

For `COc1cccc2c1C(=O)c1c(O)c3c(c(O)c1C2=O)C[C@@](O)(C(=O)CO)C[C@@H]3O[C@H]1C[C@H](N)[C@H](O)[C@H](C)O1` [Doxorubicin, doxorubicin], in experiment [4], the Fraction alive was 9/12 and the “Fraction without detectable metastasis” value is recorded as 9/12. Besides, the “Tumor invasion of the liver at day 20, Dunn's multiple comparisons test vs Vehicle: Mean rank diff.” value in experiment [4] (MRI, day 20) worked out at 28.52. Further, the “Tumor invasion of the liver at day 20, Dunn's multiple comparisons test vs Vehicle: Significant?” value in experiment [4] (MRI, day 20, vs Vehicle) is given as “Yes”. Further, the “Tumor growth in comparison to the vehicle-treated group (in words)” value in experiment [5] (B16-F10 tumors in C57BL/6 mice, FIGS. 1 and 3) was “weak and non-significant”. For the same compound, the “Median Survival” value in experiment [5] (C57BL/6 mice, s.c. B16-F10 (1×10^6 cells), CL II-TRP2/ABX196 50 μg/1 μg IV D3, anti-PD-1 Ab 10 mg/kg IP D10/D14/D17/D21, doxorubicin 12 mg/kg IV D7) is recorded as 21 days. Moreover, in experiment [5] (D17, Dunn's multiple comparison test, vs TRP2-ABX196), the “Statistical analysis of tumor growth at D17, pairwise comparison with TRP2-ABX196” value is given as “ns”. Also, the “Statistical analysis of tumor growth at D17, pairwise comparison with TRP2-ABX196 + Doxo.” value in experiment [5] (D17, Dunn's multiple comparison test, vs TRP2-ABX196 + Doxo.) is reported as “* (*P < 0.05)”. Further, the “Statistical analysis of tumor growth at D17, pairwise comparison with TRP2-ABX196 + α-PD-1” value in experiment [5] (D17, Dunn's multiple comparison test, vs TRP2-ABX196 + α-PD-1) is on record as “ns”. For the same compound, the “Statistical analysis of tumor growth at D17, pairwise comparison with Vehic.” value in experiment [5] (D17, Dunn's multiple comparison test, vs Vehic.) is “ns”. For the same compound, the “Statistical analysis of tumor growth at D17, pairwise comparison with α-PD-1” value in experiment [5] (D17, Dunn's multiple comparison test, vs α-PD-1) is given as “ns”. For the same compound, the “Statistical analysis of tumor growth at D19, pairwise comparison with TRP2-ABX196” value in experiment [5] (D19, Dunn's multiple comparison test, vs TRP2-ABX196) is listed as “ns”. The “Statistical analysis of tumor growth at D19, pairwise comparison with TRP2-ABX196 + Doxo.” value in experiment [5] (D19, Dunn's multiple comparison test, vs TRP2-ABX196 + Doxo.) is listed as “* (*P < 0.05)”. In experiment [5] (D19, Dunn's multiple comparison test, vs TRP2-ABX196 + α-PD-1), the “Statistical analysis of tumor growth at D19, pairwise comparison with TRP2-ABX196 + α-PD-1” value is given as “ns”. Moreover, the “Statistical analysis of tumor growth at D19, pairwise comparison with Vehic.” value in experiment [5] (D19, Dunn's multiple comparison test, vs Vehic.) is listed as “ns”. Moreover, the “Statistical analysis of tumor growth at D19, pairwise comparison with α-PD-1” value in experiment [5] (D19, Dunn's multiple comparison test, vs α-PD-1) is “ns”. For the same compound, the “Statistical analysis of mice survival, pairwise P vs α-PD-1 (row head as printed)” value in experiment [5] (Log-rank (Mantel-Cox) test, listed as printed as α-PD-1) amounted to 0.624. In experiment [5] (Log-rank (Mantel-Cox) test, vs Vehicle), the “Statistical analysis of mice survival, pairwise P vs Vehicle” value was 0.0015. Besides, the “T/C (anti-tumor activity index)” value in experiment [5] (day 14, median treated / median control tumor volume ×100, B16-F10 in C57BL/6 mice) was 56.3%.

Consider `CNC(=O)c1cc(Oc2ccc(NC(=O)Nc3ccc(Cl)c(C(F)(F)F)c3)cc2)ccn1` [Sorafenib], for which, in experiment [4], the Fraction alive is 5/13 and the “Fraction without detectable metastasis” value is on record as 5/13. For the same compound, the “Tumor invasion of the liver at day 20, Dunn's multiple comparisons test vs Vehicle: Mean rank diff.” value in experiment [4] (MRI, day 20) was found to be 8.644. In addition, in experiment [4] (MRI, day 20, vs Vehicle), the “Tumor invasion of the liver at day 20, Dunn's multiple comparisons test vs Vehicle: Significant?” value was “No” and the “Tumor invasion of the liver at day 20, Dunn's multiple comparisons test vs Vehicle: Summary” value is on record as “ns”.
